These cell lines were tested with C[C@]1(c2nc3c(C(N)=O)cccc3[nH]2)CCCN1 [Veliparib] + N=C(N)NC(=N)NCCc1ccccc1 [Phenformin] (partner 250 µM) (assay: relative viability (nuclei count vs DMSO), 5 days (fraction); higher = more cells survive). Conditions: first compound 0.02 µM.
Procedure, shortened: (§1)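 Lung cancer cell lines were seeded in 1536-well plates and dosed by pin tool the next day, with either a single drug or a fixed anchor-drug dose combined with five library-drug doses (not always all listed) spaced in √10 steps. Five days later, one step fixed the cells and stained their nuclei (final 0.05% Triton X-100, 1% formaldehyde, 1 ug/ml Hoechst), and nuclei were counted on 4× images. Relative viability is the nuclei count in treated wells divided by the count in vehicle wells, and each value is the median of duplicate plates.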
NCI-H1792 gave a relative viability of 0.212.
NCI-H2087 was tested, and the relative viability was 0.334.
NCI-H441 was tested, and the relative viability was 0.915.
In the case of HOP-62, the relative viability is reported as 0.514.
Work on NCI-H2170 yielded a relative viability of 0.472.
NCI-H2347 gave a relative viability of 0.426.
In the case of HARA, the relative viability is reported as 0.412.
NCI-H1915 showed a relative viability of 0.379.
In the case of SK-MES-1, the relative viability is reported as 0.707.
With NCI-H23 the relative viability was 0.851.
NCI-H661 showed a relative viability of 0.299.
Work on CAL-12T yielded a relative viability of 0.436.
NCI-H1944 gave a relative viability of 0.211.
HCC-366 was tested, and the relative viability was 0.582.

Same assay, conditions: first compound 0.06325 µM
With PC-3 [JPC-3] the relative viability was 0.478.
NCI-H1792 was tested, and the relative viability was 0.213.
NCI-H2087 gave a relative viability of 0.467.
Cell Line NCI-H441 has a relative viability of 0.986.
HOP-62 showed a relative viability of 0.61.
With NCI-H2170 the relative viability was 0.41.
NCI-H2347 showed a relative viability of 0.273.
Cell Line HARA has a relative viability of 0.399.
With NCI-H1355 the relative viability was 0.425.
NCI-H1915 gave a relative viability of 0.36.
SK-MES-1 gave a relative viability of 0.626.
Cell Line NCI-H23 has a relative viability of 0.73.
Work on NCI-H661 yielded a relative viability of 0.289.
With CAL-12T the relative viability was 0.617.
Work on NCI-H1944 yielded a relative viability of 0.188.
HCC-366 was tested, and the relative viability was 0.578.
Work on NCI-H322M yielded a relative viability of 0.641.

Same assay, conditions: first compound 0.2 µM
Work on PC-3 [JPC-3] yielded a relative viability of 0.498.
For NCI-H1792, the relative viability was 0.398.
Cell Line NCI-H2087 has a relative viability of 0.428.
NCI-H441 gave a relative viability of 0.855.
HOP-62 gave a relative viability of 0.61.
In the case of NCI-H2170, the relative viability is reported as 0.415.
Cell Line NCI-H2347 has a relative viability of 0.473.
In the case of HARA, the relative viability is reported as 0.48.
NCI-H1355 showed a relative viability of 0.46.
Work on NCI-H1915 yielded a relative viability of 0.345.
Cell Line SK-MES-1 has a relative viability of 0.628.
NCI-H23 gave a relative viability of 0.762.
In the case of NCI-H661, the relative viability is reported as 0.25.
Work on CAL-12T yielded a relative viability of 0.537.
Cell Line NCI-H1944 has a relative viability of 0.207.
HCC-366 showed a relative viability of 0.576.
Work on NCI-H322M yielded a relative viability of 0.814.

Same assay, conditions: first compound 0.6325 µM
PC-3 [JPC-3] was tested, and the relative viability was 0.469.
NCI-H1792 was tested, and the relative viability was 0.328.
NCI-H2087 gave a relative viability of 0.435.
NCI-H441 showed a relative viability of 0.72.
HOP-62 was tested, and the relative viability was 0.613.
NCI-H2170 showed a relative viability of 0.401.
NCI-H2347 was tested, and the relative viability was 0.464.
With HARA the relative viability was 0.409.
NCI-H1355 gave a relative viability of 0.423.
For NCI-H1915, the relative viability was 0.36.
With SK-MES-1 the relative viability was 0.599.
In the case of NCI-H23, the relative viability is reported as 0.756.
Work on NCI-H661 yielded a relative viability of 0.274.
In the case of CAL-12T, the relative viability is reported as 0.54.
NCI-H1944 showed a relative viability of 0.197.
In the case of HCC-366, the relative viability is reported as 0.522.
Cell Line NCI-H322M has a relative viability of 0.724.

Same assay, conditions: first compound 2 µM
Work on PC-3 [JPC-3] yielded a relative viability of 0.495.
NCI-H1792 was tested, and the relative viability was 0.247.
NCI-H2087 showed a relative viability of 0.486.
Work on NCI-H441 yielded a relative viability of 0.876.
Work on HOP-62 yielded a relative viability of 0.723.
Work on NCI-H2170 yielded a relative viability of 0.459.
NCI-H2347 showed a relative viability of 0.366.
HARA showed a relative viability of 0.474.
For NCI-H1355, the relative viability was 0.442.
NCI-H1915 gave a relative viability of 0.361.
For SK-MES-1, the relative viability was 0.663.
Work on NCI-H23 yielded a relative viability of 0.833.
Work on NCI-H661 yielded a relative viability of 0.264.
CAL-12T was tested, and the relative viability was 0.53.
NCI-H1944 was tested, and the relative viability was 0.204.
Work on HCC-366 yielded a relative viability of 0.636.
With NCI-H322M the relative viability was 0.747.

What follows are cell lines tested with COC1=CC=C(C=C1)CN2C=CC3=C2C=C(C=C3)C(=O)NO + CC(=O)c1c(C)c2cnc(Nc3ccc(N4CCNCC4)cn3)nc2n(C2CCCC2)c1=O [Palbociclib] (partner 0.5 µM) in the same assay as above. Conditions: first compound 0.08 µM.
Procedure, shortened: as §1
Work on PC-3 [JPC-3] yielded a relative viability of 0.562.
NCI-H1792 gave a relative viability of 0.616.
Work on NCI-H2087 yielded a relative viability of 0.261.
NCI-H441 showed a relative viability of 0.23.
HOP-62 showed a relative viability of 0.321.
Work on NCI-H2170 yielded a relative viability of 0.374.
In the case of NCI-H2347, the relative viability is reported as 0.422.
Work on HARA yielded a relative viability of 0.153.
NCI-H1355 gave a relative viability of 0.382.
NCI-H1915 showed a relative viability of 0.506.
Work on SK-MES-1 yielded a relative viability of 0.357.
In the case of NCI-H23, the relative viability is reported as 0.393.
CAL-12T was tested, and the relative viability was 0.424.
Cell Line HCC-366 has a relative viability of 0.339.

Same assay, conditions: first compound 0.253 µM
Cell Line NCI-H1792 has a relative viability of 0.726.
NCI-H2087 gave a relative viability of 0.226.
Cell Line NCI-H441 has a relative viability of 0.235.
HOP-62 was tested, and the relative viability was 0.442.
For NCI-H2170, the relative viability was 0.374.
NCI-H2347 gave a relative viability of 0.445.
In the case of HARA, the relative viability is reported as 0.218.
In the case of NCI-H1355, the relative viability is reported as 0.471.
Work on NCI-H1915 yielded a relative viability of 0.545.
With SK-MES-1 the relative viability was 0.324.
NCI-H23 gave a relative viability of 0.611.
Cell Line NCI-H661 has a relative viability of 0.406.
CAL-12T showed a relative viability of 0.517.
With NCI-H1944 the relative viability was 0.36.
With HCC-366 the relative viability was 0.372.

Same assay, conditions: first compound 0.8 µM
Work on PC-3 [JPC-3] yielded a relative viability of 0.559.
Work on NCI-H1792 yielded a relative viability of 0.626.
Cell Line NCI-H2087 has a relative viability of 0.259.
NCI-H441 was tested, and the relative viability was 0.238.
For HOP-62, the relative viability was 0.431.
Cell Line NCI-H2170 has a relative viability of 0.412.
In the case of NCI-H2347, the relative viability is reported as 0.472.
HARA gave a relative viability of 0.243.
In the case of NCI-H1355, the relative viability is reported as 0.425.
For NCI-H1915, the relative viability was 0.518.
Cell Line SK-MES-1 has a relative viability of 0.299.
NCI-H23 showed a relative viability of 0.556.
Cell Line NCI-H661 has a relative viability of 0.403.
With CAL-12T the relative viability was 0.585.
Cell Line NCI-H1944 has a relative viability of 0.315.
Cell Line HCC-366 has a relative viability of 0.38.
For NCI-H322M, the relative viability was 0.513.

Same assay, conditions: first compound 2.53 µM
For PC-3 [JPC-3], the relative viability was 0.55.
Cell Line NCI-H1792 has a relative viability of 0.634.
With NCI-H2087 the relative viability was 0.28.
NCI-H441 showed a relative viability of 0.231.
Work on HOP-62 yielded a relative viability of 0.413.
In the case of NCI-H2170, the relative viability is reported as 0.361.
With NCI-H2347 the relative viability was 0.441.
HARA gave a relative viability of 0.3.
NCI-H1355 showed a relative viability of 0.413.
For NCI-H1915, the relative viability was 0.505.
SK-MES-1 showed a relative viability of 0.287.
Work on NCI-H23 yielded a relative viability of 0.496.
NCI-H661 gave a relative viability of 0.422.
In the case of CAL-12T, the relative viability is reported as 0.325.
Work on NCI-H1944 yielded a relative viability of 0.338.
HCC-366 gave a relative viability of 0.367.
NCI-H322M showed a relative viability of 0.435.

Same assay, conditions: first compound 8 µM
PC-3 [JPC-3] gave a relative viability of 0.535.
Cell Line NCI-H1792 has a relative viability of 0.637.
NCI-H2087 was tested, and the relative viability was 0.164.
With NCI-H441 the relative viability was 0.185.
Cell Line HOP-62 has a relative viability of 0.493.
NCI-H2170 was tested, and the relative viability was 0.367.
NCI-H2347 showed a relative viability of 0.428.
In the case of HARA, the relative viability is reported as 0.238.
For NCI-H1355, the relative viability was 0.411.
Cell Line NCI-H1915 has a relative viability of 0.559.
SK-MES-1 showed a relative viability of 0.31.
With NCI-H23 the relative viability was 0.461.
NCI-H661 was tested, and the relative viability was 0.353.
CAL-12T gave a relative viability of 0.566.
With NCI-H1944 the relative viability was 0.308.
HCC-366 gave a relative viability of 0.389.
Work on NCI-H322M yielded a relative viability of 0.48.

Reference: the supplement of paper PMC10307832
